Assay results published in PubChem BioAssay (NCI).
“And” between values parts separate entries of the source, which are not always exact repeats. Identical values can stand only once.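 Protocol summary: plate cells (96-well), add compound at 5 concentrations, incubate 48 h, interpolate endpoints linearly. Here, GI50 denotes the concentration required for 50% inhibition of growth. TGI is the concentration that stops growth completely.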

Each compound was assayed on SK-MEL-2 melanoma (assay: growth of human tumour cells (NCI), 48 h).
C=CCOc1ccc2c(C)cc(=O)oc2c1C showed a TGI of over 100 µM. Compound Nc1c(C(=O)c2cccc(CCS(N)(=O)=O)c2)cnn1-c1ccc(F)cc1 has a GI50 of over 25 µM and a TGI of over 25 µM. Compound C=CCO[C@H]1CO[C@H]2[C@@H]1OC[C@@H]2Oc1ccc(Nc2ccnc(Nc3ccc(O[C@H]4CO[C@H]5[C@@H]4OC[C@@H]5OCC=C)c(Cl)c3)n2)cc1Cl has a GI50 of 2.29 µM and a TGI of 5.31 µM. C[C@@H](Oc1cc(-n2cnc3ccc(CN4CCN(C)CC4)cc32)sc1C(N)=O)c1ccccc1C(F)(F)F gave a TGI of over 10 µM. For O=C(CCNC12CC3CC(CC(C3)C1)C2)c1ccccc1, the TGI was 30 µM. COc1cccc(-c2cc(-c3cccc(NS(C)(=O)=O)c3)nc(N)c2C#N)c1O gave a GI50 of 0.132 µM and a TGI of over 100 µM. In the case of Cc1ccsc1C(=S)Nc1ccc(Cl)c(/C=N/OC(C)(C)C)c1, the TGI is reported as over 100 µM. CC(C)=CCC\C(C)=C/C=C/C(C)=C\C=C\C(C)=C/C=C/C=C(C)\C=C\C=C(C)/C=C/C=C(/C)CCC=C(C)C gave a TGI of over 100 µM. With NC(N)=NS(=O)(=O)c1ccc(Nc2c3ccccc3nc3c(C(=O)NCCO)cccc23)cc1 the GI50 was 26.6 µM. With COc1cccc(C2c3cc4c(cc3OC(C)(N3CCCC3)C2C)OCO4)c1O (configuration not stated) the TGI was over 23.5 µM. In the case of O=C1NC(=NCCc2cccc(F)c2)S/C1=C\c1ccc2ncccc2c1, the GI50 is reported as 15.8 µM and the TGI is reported as over 25 µM. Compound COc1cc(/C=N\NC(=O)CN2CCN(c3cc4c(cc3F)c(=O)c(C(=O)N/N=C/c3cc(OC)c(OC)c(OC)c3)cn4C3CC3)CC2)cc(OC)c1OC has a GI50 of 0.204 µM and a TGI of 0.513 µM. In the case of CC1CCc2nc[nH]c(=O)c21 (configuration not stated), the GI50 is reported as over 100 µM and the TGI is reported as over 100 µM. For Cc1ccc(NC(=O)Nc2ccc(-c3cccnc3)cc2N2CCC(CO)CC2)cc1, the GI50 was 2.24 µM and the TGI was 8.38 µM.

Each compound was assayed on HOP-62 NSCLC (assay: growth of human tumour cells (NCI), 48 h).
Compound CN(C)c1ccc(/C=C\C2=[N+](C)c3ccccc3C2(C)C)cc1 has a GI50 of 0.842 µM and a TGI of 21.6 µM. For COc1cc2c(c3oc4c(O)cccc4c(=O)c13)CC(C(C)(O)CO)O2 (configuration not stated), the TGI was over 100 µM. In the case of CC(=O)OC1OC([C@@H]2c3cccc(O)c3C(=O)c3c(O)cc(C)cc32)C(O)C(O)C1O (some centres not stated), the GI50 is reported as 0.0985 µM and the TGI is reported as 0.995 µM. For C[N+](C)(C)CC(=O)N/N=C(/CC(=O)CC(C1=C(O)c2ccccc2OC1)c1ccccc1)C(=O)Nc1cccc(Cl)c1 (configuration not stated), the TGI was over 100 µM. Compound O=C1/C(=C/c2ccc(O)c(O)c2)CCC/C1=C\c1ccc(O)c(O)c1 has a TGI of 14.5 µM. COC(=O)/C=C1\S/C(=N\NC(=O)c2cc3ccc2/C=C\c2ccc(cc2)/C=C\3)N(c2ccccc2)C1=O gave a GI50 of 2.68 µM and a TGI of 6.97 µM. COC([CH2][Hg][n]1cnc2c1c(=O)n(C)c(=O)n2C)CN1C(=O)c2ccccc2S1(=O)=O (configuration not stated) showed a GI50 of over 100 µM and a TGI of over 100 µM. Work on CN1CCCCC1CCN1c2ccccc2Sc2ccc(Cl)cc21 (configuration not stated) yielded a GI50 of 10.1 µM and a TGI of 24.2 µM. Work on C=C(C)C(OC)C(O)CC1(C)CC(O)CC(C)(C2CCC3OC(C4(C)CCC(Br)C(C)(C)O4)CCC3(C)O2)O1 (configuration not stated) yielded a GI50 of 17.4 µM and a TGI of 32.6 µM. For Cc1cc(-c2nc(C(=O)Nc3cc4oc(N5CCOCC5)nc4nc3N3CC[C@@H](O)C3)co2)ccn1, the GI50 was 30.6 µM and the TGI was over 100 µM. For Cc1ccc(Cl)c2c(N=Nc3ccccc3[N+](=O)[O-])c(O)[nH]c12, the TGI was over 100 µM. Compound FC(F)(F)c1cccc(Nc2nc(-c3ccccc3)nc3ncccc23)c1 has a GI50 of 7.18 µM and a TGI of 22.2 µM. O=C(Nc1ccccc1)c1c(O)[nH]c(=S)[nH]c1=O was tested, and the GI50 was 73.2 µM and the TGI was 82.5 µM and > 250 µM. With OC1CSSC1Cn1cnc2c(Nc3ccc(OCc4cccc(F)c4)c(Cl)c3)ncnc21 (configuration not stated) the GI50 was 0.94 µM and the TGI was 2.79 µM. For C=CCOc1ccc2c(C)cc(=O)oc2c1C, the TGI was over 100 µM. For Nc1c(C(=O)c2cccc(CCS(N)(=O)=O)c2)cnn1-c1ccc(F)cc1, the GI50 was over 25 µM and the TGI was over 25 µM. C=CCO[C@H]1CO[C@H]2[C@@H]1OC[C@@H]2Oc1ccc(Nc2ccnc(Nc3ccc(O[C@H]4CO[C@H]5[C@@H]4OC[C@@H]5OCC=C)c(Cl)c3)n2)cc1Cl gave a GI50 of 1.93 µM and a TGI of 4.01 µM. With C[C@@H](Oc1cc(-n2cnc3ccc(CN4CCN(C)CC4)cc32)sc1C(N)=O)c1ccccc1C(F)(F)F the GI50 was 0.0118 µM and 0.0199 µM and the TGI was 12.7 µM and > 10 µM. With COc1cccc(-c2cc(-c3cccc(NS(C)(=O)=O)c3)nc(N)c2C#N)c1O the GI50 was 0.135 µM and the TGI was over 100 µM. In the case of Cc1ccsc1C(=S)Nc1ccc(Cl)c(/C=N/OC(C)(C)C)c1, the TGI is reported as over 100 µM. For CC(C)=CCC\C(C)=C/C=C/C(C)=C\C=C\C(C)=C/C=C/C=C(C)\C=C\C=C(C)/C=C/C=C(/C)CCC=C(C)C, the TGI was over 100 µM. NC(N)=NS(=O)(=O)c1ccc(Nc2c3ccccc3nc3c(C(=O)NCCO)cccc23)cc1 was tested, and the GI50 was 20 µM. COc1cccc(C2c3cc4c(cc3OC(C)(N3CCCC3)C2C)OCO4)c1O (configuration not stated) gave a TGI of 31.6 µM. In the case of O=C1NC(=NCCc2cccc(F)c2)S/C1=C\c1ccc2ncccc2c1, the GI50 is reported as 2.15 µM and the TGI is reported as over 25 µM. Compound COc1cc(/C=N\NC(=O)CN2CCN(c3cc4c(cc3F)c(=O)c(C(=O)N/N=C/c3cc(OC)c(OC)c(OC)c3)cn4C3CC3)CC2)cc(OC)c1OC has a GI50 of 0.374 µM and a TGI of 21 µM. Work on CC1CCc2nc[nH]c(=O)c21 (configuration not stated) yielded a GI50 of over 100 µM and a TGI of over 100 µM. Cc1ccc(NC(=O)Nc2ccc(-c3cccnc3)cc2N2CCC(CO)CC2)cc1 showed a GI50 of 2.41 µM and a TGI of over 100 µM.

The compounds below were run on HL-60(TB) leukemia (assay: growth of human tumour cells (NCI), 48 h).
Work on CN(C)c1ccc(/C=C\C2=[N+](C)c3ccccc3C2(C)C)cc1 yielded a GI50 of 0.295 µM and a TGI of over 100 µM. Work on COc1cc2c(c3oc4c(O)cccc4c(=O)c13)CC(C(C)(O)CO)O2 (configuration not stated) yielded a TGI of over 100 µM. CC(=O)OC1OC([C@@H]2c3cccc(O)c3C(=O)c3c(O)cc(C)cc32)C(O)C(O)C1O (some centres not stated) gave a GI50 of 0.0173 µM and a TGI of 0.0493 µM. C[N+](C)(C)CC(=O)N/N=C(/CC(=O)CC(C1=C(O)c2ccccc2OC1)c1ccccc1)C(=O)Nc1cccc(Cl)c1 (configuration not stated) showed a TGI of over 100 µM. O=C1/C(=C/c2ccc(O)c(O)c2)CCC/C1=C\c1ccc(O)c(O)c1 showed a TGI of over 27.9 µM. Compound COC(=O)/C=C1\S/C(=N\NC(=O)c2cc3ccc2/C=C\c2ccc(cc2)/C=C\3)N(c2ccccc2)C1=O has a GI50 of 2.7 µM and a TGI of over 100 µM. COC([CH2][Hg][n]1cnc2c1c(=O)n(C)c(=O)n2C)CN1C(=O)c2ccccc2S1(=O)=O (configuration not stated) showed a GI50 of 53.4 µM and a TGI of over 100 µM. Work on CN1CCCCC1CCN1c2ccccc2Sc2ccc(Cl)cc21 (configuration not stated) yielded a GI50 of 2.66 µM and a TGI of 6.05 µM. C=C(C)C(OC)C(O)CC1(C)CC(O)CC(C)(C2CCC3OC(C4(C)CCC(Br)C(C)(C)O4)CCC3(C)O2)O1 (configuration not stated) gave a GI50 of 17.1 µM and a TGI of over 56.7 µM. Cc1cc(-c2nc(C(=O)Nc3cc4oc(N5CCOCC5)nc4nc3N3CC[C@@H](O)C3)co2)ccn1 gave a GI50 of 35.2 µM and a TGI of over 100 µM. Compound Cc1ccc(Cl)c2c(N=Nc3ccccc3[N+](=O)[O-])c(O)[nH]c12 has a TGI of over 100 µM. FC(F)(F)c1cccc(Nc2nc(-c3ccccc3)nc3ncccc23)c1 showed a GI50 of 2.51 µM and a TGI of 6.93 µM. For O=C(Nc1ccccc1)c1c(O)[nH]c(=S)[nH]c1=O, the GI50 was 80.4 µM and the TGI was 67.3 µM and > 250 µM. For OC1CSSC1Cn1cnc2c(Nc3ccc(OCc4cccc(F)c4)c(Cl)c3)ncnc21 (configuration not stated), the GI50 was 3.47 µM and the TGI was 20.8 µM. In the case of C=CCOc1ccc2c(C)cc(=O)oc2c1C, the TGI is reported as over 100 µM. For Nc1c(C(=O)c2cccc(CCS(N)(=O)=O)c2)cnn1-c1ccc(F)cc1, the GI50 was over 25 µM and the TGI was over 25 µM. Compound C=CCO[C@H]1CO[C@H]2[C@@H]1OC[C@@H]2Oc1ccc(Nc2ccnc(Nc3ccc(O[C@H]4CO[C@H]5[C@@H]4OC[C@@H]5OCC=C)c(Cl)c3)n2)cc1Cl has a GI50 of 1.62 µM and a TGI of 3.78 µM. With C[C@@H](Oc1cc(-n2cnc3ccc(CN4CCN(C)CC4)cc32)sc1C(N)=O)c1ccccc1C(F)(F)F the GI50 was < 0.01 µM and 0.00595 µM and the TGI was under 0.0179 µM. For O=C(CCNC12CC3CC(CC(C3)C1)C2)c1ccccc1, the TGI was 28.1 µM. For COc1cccc(-c2cc(-c3cccc(NS(C)(=O)=O)c3)nc(N)c2C#N)c1O, the GI50 was 0.0861 µM and the TGI was 2.77 µM. Cc1ccsc1C(=S)Nc1ccc(Cl)c(/C=N/OC(C)(C)C)c1 gave a TGI of 74.7 µM. CC(C)=CCC\C(C)=C/C=C/C(C)=C\C=C\C(C)=C/C=C/C=C(C)\C=C\C=C(C)/C=C/C=C(/C)CCC=C(C)C gave a TGI of over 100 µM. Compound NC(N)=NS(=O)(=O)c1ccc(Nc2c3ccccc3nc3c(C(=O)NCCO)cccc23)cc1 has a GI50 of 16.9 µM. Compound COc1cccc(C2c3cc4c(cc3OC(C)(N3CCCC3)C2C)OCO4)c1O (configuration not stated) has a TGI of 6.01 µM. O=C1NC(=NCCc2cccc(F)c2)S/C1=C\c1ccc2ncccc2c1 gave a GI50 of 2.08 µM and a TGI of over 12.9 µM. COc1cc(/C=N\NC(=O)CN2CCN(c3cc4c(cc3F)c(=O)c(C(=O)N/N=C/c3cc(OC)c(OC)c(OC)c3)cn4C3CC3)CC2)cc(OC)c1OC showed a GI50 of 0.32 µM and a TGI of over 31.7 µM. CC1CCc2nc[nH]c(=O)c21 (configuration not stated) was tested, and the GI50 was over 100 µM and the TGI was over 100 µM. Cc1ccc(NC(=O)Nc2ccc(-c3cccnc3)cc2N2CCC(CO)CC2)cc1 was tested, and the GI50 was 2.64 µM and the TGI was 7.38 µM.
